# Source: PMC9289467, “A Novel Multifunctional 5,6-Dimethoxy-Indanone-Chalcone-Carbamate Hybrids Alleviates Cognitive Decline in Alzheimer’s Disease by Dual Inhibition of Acetylcholinesterase and Inflammation” (Frontiers in Aging Neuroscience, 2022)
# Columns and labels:
# [1] = target: T1, Aβ42 oligomers (Homo sapiens, UniProt P05067); experiment: Aβ42 self-oligomerization dot blot (A11 antibody); assay type: biochemical; details: oligomer-specific antibody A11
# T1 construct: purchased Aladdin A118755
# Experimental: The formation of Aβ40 or Aβ42 oligomers was monitored by dot blot with oligomer-specific antibody. Briefly, the resulting Aβ film was dissolved in ddH2O to form a 100 μM solution, and then the oligomerization reaction ([Kayed et al., 2003]) was initiated in absence or presence of different concentrations of AP5. An aliquot (2 μL) of each solution was dripped on a nitrocellulose membrane. The membrane was blocked with 5% non-fat milk in TBS for 1 h, incubated with the anti-β amyloid (MOAB-2, NBP2-13075SS, Novus Biologicals, Colorado, United States), anti-amyloid oligomers (A11, NBP1-97930, Novus Biologicals), or anti-amyloid fibrils (OC, NBP1-97930, Novus Biologicals) antibodies overnight at 4°C. The membrane was then incubated using HRP-conjugated secondary antibodies at room temperature for 1 h and then developed with ECL.
# [2] = test system: ACh; experiment: Brain ACh level, Amplex Red kit, APP/PS1 mice; assay type: in vivo, mouse; details: AP5 40 mg/kg intragastric once daily 5 months, vs APP/PS1 mice
# Experimental: (§1) APP/PS1 mice of ages 6 months were randomly divided into vehicle (APP/PS1, n = 10) and treatment groups (AP5, n = 10), which were intragastrically administered with AP5 (40 mg/kg) once daily for consecutive 5 months. AP5 was dissolved in distilled water containing 1% sodium carboxymethyl cellulose.
# The brain samples were weighed, homogenized in PBS solution, and centrifuged for 20 min at 25,000 g at 4°C. Amplex® Red acetylcholinesterase/acetylcholine assay kit (A12217, Thermo Fisher Scientific) was used to detect AChE activity and ACh levels in the supernatant in accordance with the manufacturer’s instructions.
# Briefly, for ACh assay, the reactions were started by adding 100 µL of the Amplex Red reagent, HRP, choline oxidase, AChE working solution to each microplate well containing the controls and samples. For AChE assay, detection cocktail solution containing ACh, Amplex Red, choline oxidase and horseradish peroxidase was added toeach well. Assay plates were incubated at room temperature for 30 min and protected from light, followed by detecting fluorescence of resorufin (λex = 544 nm, λem = 590 nm) in a fluorescence microplate reader.
# After deparaffinization and antigen retrieval, the sections were incubated with 0.3% hydrogen peroxide (H2O2) to inhibit endogenous peroxidase activity for 20 min and blocked by goat serum for 30 min at37°C. […]
# [3] = test system: recognition memory; experiment: Novel object recognition task; assay type: in vivo, APP/PS1 mice
# Experimental: as §1
# To investigate whether AP5 treatment plays a key role in cognition improvement of APP/PS1 mice models, the five different behavioral tests were sequentially carried out in the following order: open field, novel object recognition task, spatial object-location task, Y-maze, and Morris water maze (MWM). AP5 was also administered daily during the test periods. […]
# To study the kinetics of Aβ-AChE fibril complex formation, 10 μM Aβ was mixed with AChE (R005282, Roche, Basel, Switzerland) and different concentrations AP5 and incubated with 10 μM ThT and 50 mM glycine-NaOH (pH 8.5) at 37°C, the ThT fluorescence was continually measured for 24 h at 30 min intervals. […] Fluorescence emission at485 nm was measured on a Spectra MAX GeminiXS fluorometerat an excitation wavelength of 450 nm. […]
# To assess locomotor activity, mice were individually tested in an open-field box (38 cm × 38 cm × 25 cm). The movement of the mouse was tracked for 5 min with open fieldvideo analysis system, and the total move distances was automatically recorded as adirect measure of locomotor activity. […]
# T1 sequence (P05067 672-713 limits assumed): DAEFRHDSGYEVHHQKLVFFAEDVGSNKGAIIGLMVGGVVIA
smiles,measurement,setting,value
"CCN(C)C(=O)Oc1cccc(/C=C2\Cc3cc(OC)c(OC)cc3C2=O)c1 [AP5, (E)-3-((5,6-dimethoxy-1-oxo-1,3-dihydro-2H-inden-2-ylidene)-methyl)phenylethyl(methyl)carbamate]",levels of oligomeric Aβ42,[1],decreased the levels
same,ACh levels in cortex and hippocampus,[2],elevated levels of ACh
same,"discrimination index, novel object recognition","[3]; at 1 h, vs APP/PS1 mice",significantly higher
same,"discrimination index, novel object recognition","[3]; at 24 h, vs APP/PS1 mice without treatment",significantly better
